Structures can show the parent of a compound that is named as a salt.
Columns and labels:
[1] = target: T1, human adenosine A2a receptor (Homo sapiens, UniProt P29274); assay: Adenosine A2a Receptor Functional Assay (A2AGAL2); format: cell-based; details: CHO-K1 cells, cAMP inducible beta-galactosidase reporter, 15 nM NECA agonist challenge
T1 construct: expressed in transfected cells; host or cells: CHO-K1
Description: Adenosine A2a Receptor Functional Assay (A2AGAL2)
To initiate the functional assay, cryopreserved CHO-K1 cells overexpressing the human adenosine A2a receptor and containing a cAMP inducible beta-galactosidase reporter gene were thawed, centrifuged, DMSO containing media removed, and then seeded with fresh culture media into clear 384-well tissue culture treated plates (BD #353961) at a concentration of 10K cells/well. Prior to assay, these plates were cultured for two days at 37° C., 5% CO2, 90% Rh. On the day of the functional assay, culture media was removed and replaced with 45 uL assay medium (Hams/F-12 Modified (Mediatech # 10-080CV) supplemented w/0.1% BSA). Test compounds were diluted and 11 point curves created at a 1000× concentration in 100% DMSO. Immediately after addition of assay media to the cell plates, 50 nL of the appropriate test compound antagonist or agonist control curves were added to cell plates using a Cartesian Hummingbird. Compound curves were allowed to incubate at room temperature on cell plates for approximately 15 minutes before addition of a 15 nM NECA (Sigma E2387) agonist challenge (5 uL volume). A control curve of NECA, a DMSO/Media control, and a single dose of Forskolin (Sigma F3917) were also included on each plate. After additions, cell plates were allowed to incubate at 37° C., 5% CO2, 90% Rh for 5.5-6 hours. After incubation, media was removed, and cell plates were washed 1×50 uL with DPBS w/o Ca & Mg (Mediatech 21-031-CV). Into dry wells, 20 uL of 1× Reporter Lysis Buffer (Promega E3971 (diluted in dH2O from 5× stock)) was added to each well and plates frozen at −20° C. overnight. For β-galactosidase enzyme calorimetric assay, plates were thawed out at room temperature and 20 μL 2× assay buffer (Promega) was added to each well. Color was allowed to develop at 37° C., 5% CO2, 90% Rh for 1-1.5 h or until reasonable signal appeared. The calorimetric reaction was stopped with the addition of 60 μL/well 1M sodium carbonate. Plates were counted at 405 nm on a SpectraMax Microplate Reader (Molecular Devices). Data was analyzed in Microsoft Excel and IC/EC50 curves were fit using a standardized macro.

[2] = target: T2, human A2a adenosine receptor (Homo sapiens, UniProt P29274); assay: Ligand Binding Assay for Adenosine A2a Receptor (A2A-B); details: HEK293 plasma membrane, radioligand [3H]CGS21680
T2 construct: purchased PerkinElmer RB-HA2a; host or cells: HEK293
T2 sequence (P29274 whole entry): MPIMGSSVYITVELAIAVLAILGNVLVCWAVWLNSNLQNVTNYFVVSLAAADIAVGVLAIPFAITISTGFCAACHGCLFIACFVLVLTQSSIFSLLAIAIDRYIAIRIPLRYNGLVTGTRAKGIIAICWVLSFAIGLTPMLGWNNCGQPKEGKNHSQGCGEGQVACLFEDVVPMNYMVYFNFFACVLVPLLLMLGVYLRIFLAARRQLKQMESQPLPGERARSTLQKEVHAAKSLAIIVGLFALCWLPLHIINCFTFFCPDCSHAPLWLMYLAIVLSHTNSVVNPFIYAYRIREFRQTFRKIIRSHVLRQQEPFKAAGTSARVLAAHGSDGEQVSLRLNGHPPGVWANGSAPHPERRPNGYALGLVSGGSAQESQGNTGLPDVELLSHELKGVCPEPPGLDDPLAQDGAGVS
Description: Ligand Binding Assay for Adenosine A2a Receptor
Ligand binding assay of adenosine A2a receptor was performed using plasma membrane of HEK293 cells containing human A2a adenosine receptor (PerkinElmer, RB-HA2a) and radioligand [^3H]CGS21680 (PerkinElmer, NET 1021). Assay was set up in 96-well polypropylene plate in total volume of 200 μL by sequentially adding 20 μL 1:20 diluted membrane, 130 μL assay buffer (50 mM Tris.HCl, pH7.4 10 mM MgCl2, 1 mM EDTA) containing [^3H] CGS21680, 50 μL diluted compound (4×) or vehicle control in assay buffer. Nonspecific binding was determined by […] NECA. Reaction was carried out at room temperature for 2 hours before filtering through 96-well GF/C filter plate pre-soaked in 50 mM Tris.HCl, pH7.4 containing 0.3% polyethylenimine. Plates were then washed 5 times with cold 50 mM Tris.HCl, pH7.4, dried and sealed at the bottom. Microscintillation fluid 30 μL was added to each well and the top sealed. Plates were counted on Packard Topcount for [^3H]. Data was analyzed in Microsoft Excel and GraphPad Prism programs. (Varani, K.; Gessi, S.; Dalpiaz, A.; Borea, P. A. British Journal of Pharmacology, 1996, 117, 1693)

[3] = target: T3, human adenosine A1 receptor (Homo sapiens, UniProt P30542); assay: Adenosine A1 Receptor Functional Assay (A1GAL2); format: cell-based; details: CHO-K1 cells, cAMP inducible beta-galactosidase reporter, 4 nM r-PIA/1 uM Forskolin challenge
T3 construct: expressed in transfected cells; host or cells: CHO-K1
T3 sequence (P30542 1-326): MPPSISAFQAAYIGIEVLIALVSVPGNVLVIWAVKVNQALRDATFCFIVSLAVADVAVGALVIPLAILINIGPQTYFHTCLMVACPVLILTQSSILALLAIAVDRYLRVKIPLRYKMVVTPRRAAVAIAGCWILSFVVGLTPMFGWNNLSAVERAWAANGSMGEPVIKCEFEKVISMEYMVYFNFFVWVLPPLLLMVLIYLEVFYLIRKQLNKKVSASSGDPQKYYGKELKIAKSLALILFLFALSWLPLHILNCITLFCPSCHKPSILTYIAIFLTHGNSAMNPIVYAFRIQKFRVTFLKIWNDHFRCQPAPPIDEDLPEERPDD
Description: Adenosine A1 Receptor Functional Assay (A1GAL2)
To initiate the functional assay, cryopreserved CHO-K1 cells overexpressing the human adenosine A1 receptor and containing a cAMP inducible beta-galactosidase reporter gene were thawed, centrifuged, DMSO containing media removed, and then seeded with fresh culture media into clear 384-well tissue culture treated plates (BD #353961) at a concentration of 10K cells/well. Prior to assay, these plates were cultured for two days at 37° C., 5% CO2, 90% Rh. On the day of the functional assay, culture media was removed and replaced with 45 uL assay medium (Hams/F-12 Modified (Mediatech # 10-080CV) supplemented w/0.1% BSA). Test compounds were diluted and 11 point curves created at a 1000× concentration in 100% DMSO. Immediately after addition of assay media to the cell plates, […] of the appropriate test compound antagonist or agonist control curves were added to cell plates using a Cartesian Hummingbird. Compound curves were allowed to incubate at room temperature on cell plates for approximately 15 minutes before addition of a 4 nM r-PIA (Sigma P4532)/1 uM Forskolin (Sigma F3917) agonist challenge (5 uL volume). A control curve of r-PIA in 1 uM Forskolin, a DMSO/Media control, and a single dose of Forskolin were also included on each plate. After additions, cell plates were allowed to incubate at 37° C., 5% CO2, 90% Rh for 5.5-6 hours. After incubation, media was removed, and cell plates were washed 1×50 uL with DPBS w/o Ca & Mg (Mediatech 21-031-CV).
Into dry wells, 20 uL of 1× Reporter Lysis Buffer (Promega E3971 (diluted in dH2O from 5× stock)) was added to each well and plates frozen at −20° C. overnight. For β-galactosidase enzyme calorimetric assay, plates were thawed out at room temperature and 20 μL 2× assay buffer (Promega) was added to each well. Color was allowed to develop at 37° C., 5% CO2, 90% Rh for 1-1.5 h or until reasonable signal appeared. The calorimetric reaction was stopped with the addition of 60 μL/well 1M sodium carbonate. Plates were counted at 405 nm on a SpectraMax Microplate Reader (Molecular Devices). Data was analyzed in Microsoft Excel and IC/EC50 curves were fit using a standardized macro.

T1 sequence (P29274 whole entry): as the sequence (P29274 whole entry) above

Ki [1]	Ki [2]	Ki [3]	SMILES
634 nM	733 nM	1600 nM	Cn1cccc1-c1nc(N)c2cc(CN3CCC(F)CC3)sc2n1 [Example 78, 6-(4-Fluoro-piperidin-1-ylmethyl)-2-(1-methyl-1H-pyrrol-2-yl)-thieno[2,3-d]pyrimidin-4-ylamine]
115 nM	139 nM	> 10000 nM	Nc1nc(-c2cccs2)nc2sc(CN3CCCC3)cc12 [Example 30, 6-Pyrrolidin-1-ylmethyl-2-thiophen-2-yl-thieno[2,3-d]pyrimidin-4-ylamine]
53 nM	88.1 nM	18200 nM	Nc1nc(-c2ccco2)nc2sc(CN3CCOCC3)cc12 [Example 42, 2-Furan-2-yl-6-morpholin-4-ylmethyl-thieno[2,3-d]pyrimidin-4-ylamine]
31.9 nM	32.7 nM	1050 nM	Cc1ccc(-c2nc(N)c3cc(CN4CCOCC4)sc3n2)o1 [Example 38, 2-(5-Methyl-furan-2-yl)-6-morpholin-4-ylmethyl-thieno[2,3-d]pyrimidin-4-ylamine]
33.2 nM	1.8 nM	1420 nM	Nc1nc(-c2ccc(Cl)o2)nc2sc(CN3CCCCCC3)cc12 [Example 93, 6-Azepan-1-ylmethyl-2-(5-chloro-furan-2-yl)-thieno[2,3-d]pyrimidin-4-ylamine]
325 nM	1620 nM	3020 nM	Nc1nc(C2CC2)nc2sc(CN3CC=CCC3)cc12 [Example 96, 2-Cyclopropyl-6-(3,6-dihydro-2H-pyridin-1-ylmethyl)-thieno[2,3-d]pyrimidin-4-ylamine]
48.7 nM	21 nM	2230 nM	Nc1nc(-c2ccco2)nc2sc(CN3CCC(F)(F)CC3)cc12 [Example 56, 6-(4,4-Difluoro-piperidin-1-ylmethyl)-2-furan-2-yl-thieno[2,3-d]pyrimidin-4-ylamine]
64.9 nM	281 nM	1780 nM	N#Cc1cccc(-c2nc(N)c3cc(CN4CCSCC4)sc3n2)c1 [Example 83, 3-(4-Amino-6-thiomorpholin-4-ylmethyl-thieno[2,3-d]pyrimidin-2-yl)-benzonitrile]
35.9 nM	1.9 nM	1080 nM	Nc1nc(-c2ccc(Cl)o2)nc2sc(CN3CCC(F)CC3)cc12 [Example 89, 2-(5-Chloro-furan-2-yl)-6-(4-fluoro-piperidin-1-ylmethyl)-thieno[2,3-d]pyrimidin-4-ylamine hydrochloride]
22 nM	15 nM	800 nM	Nc1nc(-c2ccc(Br)o2)nc2sc(CN3CCCC3)cc12 [Example 35, 2-(5-Bromo-furan-2-yl)-6-pyrrolidin-1-ylmethyl-thieno[2,3-d]pyrimidin-4-ylamine]
10.2 nM	0.54 nM	783 nM	Nc1nc(-c2ccc(Cl)o2)nc2sc(CN3CC=CC3)cc12 [Example 97, 2-(5-Chloro-furan-2-yl)-6-(2,5-dihydro-pyrrol-1-ylmethyl)-thieno[2,3-d]pyrimidin-4-ylamine]
50.3 nM	384 nM	1180 nM	N#Cc1cccc(-c2nc(N)c3cc(CN4CCCC(F)(F)C4)sc3n2)c1 [Example 62, 3-[4-Amino-6-(3,3-difluoro-piperidin-1-ylmethyl)-thieno[2,3-d]pyrimidin-2-yl]-benzonitrile]
297 nM	220 nM	4000 nM	Nc1nc(-c2ccco2)nc2sc(CN3CCC(O)CC3)cc12 [Example 52, 1-(4-Amino-2-furan-2-yl-thieno[2,3-d]pyrimidin-6-ylmethyl)-piperidin-4-ol]
78.9 nM	76 nM	2350 nM	N#Cc1ccc(-c2nc(N)c3cc(CN4CC=CC4)sc3n2)cc1 [Example 88, 4-[4-Amino-6-(2,5-dihydro-pyrrol-1-ylmethyl)-thieno[2,3-d]pyrimidin-2-yl]-benzonitrile]
102 nM	184 nM	1080 nM	COc1cccc(-c2nc(N)c3cc(CN4CC=CCC4)sc3n2)c1 [Example 80, 6-(3,6-Dihydro-2H-pyridin-1-ylmethyl)-2-(3-methoxy-phenyl)-thieno[2,3-d]pyrimidin-4-ylamine]
> 10000 nM	41.8 nM	129 nM	N#Cc1cccc(-c2nc(N)c3cc(CN4CCCC4)sc3n2)c1 [Example 65, 3-(4-Amino-6-pyrrolidin-1-ylmethyl-thieno[2,3-d]pyrimidin-2-yl)-benzonitrile]
121 nM	15 nM	1030 nM	Nc1nc(-c2ccco2)nc2sc(CNC34CC5CC(CC(C5)C3)C4)cc12 [Example 91, 6-(Adamantan-1-ylaminomethyl)-2-furan-2-yl-thieno[2,3-d]pyrimidin-4-ylamine]
–	371 nM	–	Cc1ccc(-c2nc(N)c3cc(CN4CCN(C)CC4)sc3n2)o1 [Example 36, 2-(5-Methyl-furan-2-yl)-6-(4-methyl-piperazin-1-ylmethyl)-thieno[2,3-d]pyrimidin-4-ylamine]
–	216 nM	–	COCCNCc1cc2c(N)nc(-c3ccco3)nc2s1 [Example 33, 2-Furan-2-yl-6-[(2-methoxy-ethylamino)-methyl]-thieno[2,3-d]pyrimidin-4-ylamine]
–	375 nM	–	Cc1ccc(-c2nc(N)c3cc(CN4CCC(O)C4)sc3n2)o1 (stereo not drawn) [Example 40, 1-[4-Amino-2-(5-methyl-furan-2-yl)-thieno[2,3-d]pyrimidin-6-ylmethyl]-pyrrolidin-3-ol]

— patent US20100093702A1, “METHYLENE AMINES OF THIENO[2,3-d]PYRIMIDINE AND THEIR USE AS ADENOSINE A2a RECEPTOR ANTAGONISTS” (priority 2008, published 2010)
